This note sets out measurements from US9815854B2, “3-(3H-imidazo[4,5-B]pyridin-2-yl)-1H-pyrazolo[3,4-C]pyridine and therapeutic uses thereof” (Samumed, LLC, priority 2014, dated 2017).

For assay [1], the system named is Wnt activity (Sp5-Luc reporter, TCF/LEF binding sites) in SW480 colon carcinoma cells. As to the kind of experiment: Sp5-Luc Wnt reporter gene screening assay in SW480 colon carcinoma cells. Particulars: Homo sapiens. It counts as cell-based, human. An excerpt: The screening assay for Wnt activity is described as follows. Reporter cell lines can be generated by stably transducing cancer cell lines (e.g., colon cancer) or primary cells (e.g., IEC-6 intestinal cells) with a lentiviral construct that includes a Wnt-responsive promoter driving expression of the firefly luciferase gene.
SW480 colon carcinoma cells were transduced with a lentiviral vector expressing luciferase with a human Sp5 promoter consisting of a sequence of eight TCF/LEF binding sites. SW480 cells stably expressing the Sp5-Luc reporter gene and a hygromycin resistance gene were selected by treatment with 150 μg/ml of hygroinycin for 7 days. These stably transduced SW480 cells were expanded in cell culture and used for all further screening activities. For Sp5-Luc reporter gene assays, the cells were plated at 10,000 cells/well in 96-well plates with growth medium containing 10% fetal calf serum and incubated overnight at 37° C. and 5% CO2. Each compound was dissolved in DMSO as a 10 mM stock in standard j-vials and used to prepare compound source plates in dose-response format with 3-fold serial dilutions and a 10 mM top concentration. Compound transfer from serially diluted source plates to assay plates containing the cells was accomplished using a pintool (Multimek 96, Beckman equipped with V&P Scientific FP1S50H pins) based liquid handling protocol. This protocol used a slotted pin to transfer 50 nl of compound from a source plate well to an assay plate well containing 50 μl of cells in growth medium. […] Control wells received 50 nl of DMSO treatment for nommlization and calculating IC50 values. The treated cells were incubated at 37° C. and 5% CO2 for an additional forty-two hours. Following incubation, the growth medium was removed and 50 μl of BrightGlo luminescence reagent (Promega) was added to each well of the 96-well assay plates. The plates were placed on an orbital shaker for 5 min and then luminescence was quantified on the Victor3 (Perkin Elmer) plate reader. Readings were normalized to DMSO only treated cells, and normalized activities were utilized for IC50 calculations using the dose-response log (inhibitor) vs. response—variable slope (four parameters) nonlinear regression feature available in GraphPad Prism 5.0 or 6.0.

The subject of assay [2] is primary human fibroblasts derived from IPF patients (LL29 cells). As to the kind of experiment: Inhibition of the fibrotic process in TGF-β1-treated primary human fibroblasts from IPF patients (αSMA staining). Particulars: Fibroblast, 96 h, TGF-β1 20 ng/mL, 4 days, read-out: Inhibition of fibrosis EC50. It counts as cell-based. The text has this:
The above synthesized compounds were screened using primary human fibroblasts (derived from IPF patients) treated with TGF-β1 to determine their ability to inhibit the fibrotic process.
Human Fibroblast Celt Culture: Primary human fibroblasts derived from IPF patients (LL29 cells) [^1Xiaoqiu Liu, et.al., “Fibrotic Luna Fibroblasts Show Blunted Inhibition by cAMP Due to Deficient cAMP Response Element-Binding Protein Phosphorylation”, Journal of Pharmacology and Experimental Therapeutics (2005), 315(2), 678-687; ^2Watts, K. L., et.al., “RhoA signaling modulates cyclin D1 expression in human lung fibroblasts; implications for idiopathic pulmonary fibrosis”, Respiratory Research (2006), 7(1), 88] were obtained from American Type Culture Collection (ATCC) and expanded in F12 medium supplemented with 15% Fetal Bovine Serum and Penicillin/Streptomycin.
Compound Screening: Each compound was dissolved in DMSO as a 10 mM stock and used to prepare compound source plates. Serial dilution (1:2, 11-point dose-response curves from 10 μM to […]) and compound transfer was performed using the ECHO 550 (Lahcyte, Sunnyvale, Calif.) into 384-well clear bottom assay plates (Greiner Bio-One) with appropriate DMSO backfill fhr a final DMSO concentration of 0.1%. LL29 cells were plated at 1,500 cells/well in 80 μl/well F12 medium supplemented with 1% Fetal Bovine Serum. One hour after addition of the cells. TGF-β1 (Peprotech; 20 ng/mL) was added to the plates to induce fibrosis (ref. 1 and 2 above), Wells treated with TGF-β1 and containing DMSO were used as controls. Cells were incubated at 37° C. and 5% CO2 for 4 days. Following incubation for 4 days, SYTOX green nucleic acid stain (Life Technologies [Thermo Fisher Scientific]) was added to the wells at a final concentration of 1 uM and incubated at room temperature for 30 min. Cells were then fixed using 4% formaldehyde (Electron Microscopy Sciences), washed 3 times with PBS followed by blocking and penneabilization using 3% Bovine Serum Albumin (BSA; Sigma) and 0.3% Triton X-100 (Sigma) in PBS. Cells were then stained with antibody specific to α-smooth muscle actin (αSMA; Abeam) (ref 1 and 2 above) in 3% Bovine Serum Albumin (BSA; Sigma) and 0.3% Triton X-100 (Sigma) in PBS, and incubated overnight at 4° C. Cells were then washed 3 times with PBS, followed by incubation with Alexa Flor-647 conjugated secondary antibody (Life Technologies [Thermo Fisher Scientific]) and DAPI at room temperature for 1 hour, Cells were then washed 3 times with PBS and plates were sealed for imaging. αSMA staining was imaged by excitation at 630 nm and emission at 665 nm and quantified using the Compartmental Analysis program on the CellInsight CX5 (Thermo Scientific). Dead or apoptotic cells were excluded from analysis based on positive SYTOX green staining. % of total cells positive for αSMA were counted in each well and normalized to the average of 11 wells treated with TGF-β1 on the same plate using Dotmatics' Studies Software. The normalized averages (fold change over untreated) of 3 replicate wells for each compound concentration were used to create dose-responses curves and EC50 values were calculated using non-linear regression curve fit in the Dotmatics' Studies Software. The EC50 values are reported.

The compound `CN(C)Cc1cncc(-c2cc3c(-c4nc5c(-c6cccc(F)c6)ccnc5[nH]4)n[nH]c3cn2)c1` [Compound 13, 1-(5-(3-(7-(3-Fluorophenyl)-3H-imidazo[4,5-b]pyridin-2-yl)-1H-pyrazolo[3,4-c]pyridin-5-yl)pyridin-3-yl)-N,N-dimethylmethanamine] came in with an IC50 in assay [1] of 290 nM. Also, the EC50 in assay [2] stood at 745 nM.

`CCCC(=O)Nc1cncc(-c2cc3c(-c4nc5c(-c6cccc(F)c6)ccnc5[nH]4)n[nH]c3cn2)c1` [Compound 17, N-(5-(3-(7-(3-Fluorophenyl)-3H-imidazo[4,5-b]pyridin-2-yl)-1H-pyrazolo[3,4-c]pyridin-5-yl)pyridin-3-yl)butyramide] displayed an IC50 in assay [1] of 59.7 nM. The EC50 in assay [2] was at most 9 nM.

Turning to `O=C(Nc1cncc(-c2cc3c(-c4nc5c(-c6cccc(F)c6)ccnc5[nH]4)n[nH]c3cn2)c1)C1CC1` [Compound 19, N -(5-(3-(7-(3-Fluorophenyl)-3H-imidazo[4,5-b]pyridin-2-yl)-1H-pyrazolo[3,4-c]pyridin-5-yl)pyridin-3-yl)cyclopropanecarboxamide], the IC50 in assay [1] came to 46.5 nM. Moreover, the EC50 in assay [2] stood at 301 nM.

As to `Fc1ccc(-c2ccnc3[nH]c(-c4n[nH]c5cnc(-c6cncc(CN7CCCC7)c6)cc45)nc23)cc1` [Compound 40, 3-(7-(4-Fluorophenyl)-3H-imidazo[4,5-b]pyridin-2-yl)-5-(5-(pyrrolidn-1-ylmethyl)pyridin-3-yl)-1H-pyrazolo[3,4-c]pyridine], in assay [1], the IC50 was determined as 321 nM. In assay [2], the EC50 worked out at 348 nM.

Take `CCCC(=O)Nc1cncc(-c2cc3c(-c4nc5c(-c6ccc(F)cc6)ccnc5[nH]4)n[nH]c3cn2)c1` [Compound 43, N-(5-(3-(7-(4-Fluorophenyl)-3H-imidazo[4,5-b]pyridin-2-yl)-1H-pyrazolo[3,4-c]pyridin-5-yl)pyridin-3-yl)butyramide]: the IC50 in assay [1] worked out at 21.2 nM. In assay [2], the EC50 was found to be 69 nM.

`O=C(Nc1cncc(-c2cc3c(-c4nc5c(-c6ccc(F)cc6)ccnc5[nH]4)n[nH]c3cn2)c1)C1CCC1` [Compound 46, N-(5-(3-(7-(4-Fluorophenyl)-3H-imidazo[4,5-b]pyridin-2-yl)-1H-pyrazolo[3,4-c]pyridin-5-yl)pyridin-3-yl)cyclobutanecarboxamide]: the IC50 in assay [1] is 50.8 nM. Further, the 50% effective concentration (EC50) in assay [2] was 240 nM.

With `Fc1ccc(-c2ccnc3[nH]c(-c4n[nH]c5cnc(-c6cncnc6)cc45)nc23)cc1` [Compound 52, 3-(7-(4-Fluorophenyl)-3H-imidazo[4,5-b]pyridin-2-yl)-5-(pyrimidin-5-yl)-1H-pyrazolo[3,4-c]pyridine], the IC50 in assay [1] came to 65.3 nM. The EC50 in assay [2] is 259 nM.

`Nc1cncc(-c2cc3c(-c4nc5c(-c6ccccc6F)ccnc5[nH]4)n[nH]c3cn2)c1` [Compound 55, 5-(3-(7-(2-Fluorophenyl)-3H-imidazo[4,5-b]pyridin-2-yl)-1H-pyrazolo[3,4-c]pyridin-5-yl)pyridin-3-amine] registered an IC50 in assay [1] of 26.8 nM. Also, in assay [2], the EC50 is 20 nM.

The compound `CC(C)(C)C(=O)Nc1cncc(-c2cc3c(-c4nc5c(-c6ccccc6F)ccnc5[nH]4)n[nH]c3cn2)c1` [Compound 60] yielded an IC50 in assay [1] of 45.5 nM. The EC50 in assay [2] is at most 9 nM.

Take `CCCC(=O)Nc1cncc(-c2cc3c(-c4nc5c(-c6ccccc6F)ccnc5[nH]4)n[nH]c3cn2)c1` [Compound 69, N-(5-(3-(7-(2-Fluorophenyl)-3H-imidazo[4,5-b]pyridin-2-yl)-1H-pyrazolo[3,4-c]pyridin-5-yl)pyridin-3-yl)butyramide]: in assay [1], the IC50 amounted to 128 nM. In addition, in assay [2], the EC50 amounted to 210 nM.

The compound `O=C(Nc1cncc(-c2cc3c(-c4nc5c(-c6ccccc6F)ccnc5[nH]4)n[nH]c3cn2)c1)C1CCCC1` [Compound 73, N-(5-(3-(7-(2-Fluorophenyl)-3H-imidazo[4,5-b]pyridin-2-yl)-1H-pyrazolo[3,4-c]pyridin-5-yl)pyridin-3-yl)cyclopentanecarboxamide] registered an IC50 in assay [1] of 36.9 nM. In assay [2], the EC50 was 324 nM.

As usually defined, the IC50 is the concentration that gives 50% inhibition. Broadly, the EC50 is the concentration needed to bring the measured effect to its halfway point.
